Experimental data published in patent publication US9765116B2, “Inhibitors of the Eph-A receptor and uses thereof” (Carmel Haifa University Economic Corporation Ltd., priority 2013, dated 2017).

Key:
EphA4 [1] = biological target: T1, EphA4 (Rattus norvegicus, UniProt D3ZZK3); assay: Pull down experiment with pep-ephrinA4 (FIG. 4B), EphA4; format: binding; details: vs pep-control and agarose beads alone
rats = details: subcutaneous, single dose 20 μl of 10 μg/μl, 1 hour after fear conditioning, relative to saline
Method: A fear conditioning in vivo model was performed as in example 3A, however, no cannula was introduced into the rats. […] A fear memory test was performed 24 hours after the injection.

[2] = biological target: elongation factor 2 protein (eEF2) (Rattus norvegicus, UniProt P05197); assay: Pull down experiment with pep-ephrinA4, eEF2 control protein; format: binding
EphB2 receptor = details: control protein
EphA4 [3] = biological target: T1, EphA4; assay: ephrinA4-induced EphA4 tyrosine phosphorylation in brain slices containing the amygdala (immunoprecipitation, Western blot); format: cell-based; set-up: brain slices that contain the amygdala were divide to 3 groups; from tissue; host or cells: brain slices containing the amygdala; details: brain slices in Ringer's solution stimulated with ephrinA4-Fc for 20 minutes, compared to Ringer's solution control
Method: Further, brain slices that contain the amygdala were divide to 3 groups: 1) placed in Ringer's solution, 2) placed in Ringer's solution and stimulated with ephrinA4-Fc for 20 minutes or 3) placed in Ringer's solution with pep-ephrinA4 for 20 minutes followed by stimulation with ephrinA4-Fc for 20 minutes (n=3 each). Protein extracts from the slices were immunoprecipitated with anti-EphA4 antibody and subjected to Western blot with anti-EphA4 or anti-phosphotyrosine antibodies.

T1 sequence (D3ZZK3 20-986): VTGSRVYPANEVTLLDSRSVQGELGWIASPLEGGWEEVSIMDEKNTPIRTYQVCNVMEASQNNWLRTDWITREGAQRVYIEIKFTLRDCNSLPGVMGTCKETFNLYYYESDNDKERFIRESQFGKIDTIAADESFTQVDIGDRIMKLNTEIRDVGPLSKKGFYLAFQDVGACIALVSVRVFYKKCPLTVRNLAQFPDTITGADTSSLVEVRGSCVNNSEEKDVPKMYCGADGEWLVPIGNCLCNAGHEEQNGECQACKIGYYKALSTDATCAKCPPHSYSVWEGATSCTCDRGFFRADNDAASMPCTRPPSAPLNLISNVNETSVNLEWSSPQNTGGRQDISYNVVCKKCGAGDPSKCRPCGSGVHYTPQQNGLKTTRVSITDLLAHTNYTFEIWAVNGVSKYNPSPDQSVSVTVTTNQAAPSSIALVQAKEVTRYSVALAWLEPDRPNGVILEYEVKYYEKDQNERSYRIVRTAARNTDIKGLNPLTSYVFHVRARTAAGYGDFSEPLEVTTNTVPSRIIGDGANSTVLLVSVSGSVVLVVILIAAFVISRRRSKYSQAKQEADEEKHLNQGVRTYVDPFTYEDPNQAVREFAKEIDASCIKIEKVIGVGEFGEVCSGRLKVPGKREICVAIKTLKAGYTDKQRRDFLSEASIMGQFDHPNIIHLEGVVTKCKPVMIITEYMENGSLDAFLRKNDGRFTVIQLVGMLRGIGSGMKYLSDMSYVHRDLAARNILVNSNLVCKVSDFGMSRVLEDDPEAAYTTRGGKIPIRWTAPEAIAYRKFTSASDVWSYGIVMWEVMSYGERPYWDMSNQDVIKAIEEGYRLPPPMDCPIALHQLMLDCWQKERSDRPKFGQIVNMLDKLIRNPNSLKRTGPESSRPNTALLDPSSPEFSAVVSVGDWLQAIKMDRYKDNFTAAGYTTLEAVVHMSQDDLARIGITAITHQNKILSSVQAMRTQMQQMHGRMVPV

## Ac-RRWSGYEACTAEG-Lys(Biotin)-NH2-0H [peptide 2, reference compound]
EphA4 [1]
  interaction with EphA4 (pull down): not

## Ac-RRQRYTPFPLGFE-Lys(Biotin)-NH2-0H [peptide 1]
rats
  freezing in fear memory test 24 hours after the injection: significantly reducing freezing
EphA4 [1]
  interaction with EphA4 (pull down): interacts
[2]
  interaction with elongation factor 2 protein (eEF2) (pull down): did not interact
Male Sprague Dawley rats; 0.5 μl of 10 μg/μl per amygdala into LA 30 minutes before training, vs saline, peptide 2 and misplaced peptide 1
  freezing 24 hours after training (long term fear memory): froze significantly less
Male Sprague Dawley rats; LA microinjection, compared to controls
  rate of fear reduction over the trials: did not alter
Male Sprague Dawley rats; LA microinjection, no main effect for groups (p>0.4)
  freezing 1 hour after training (formation of short term memory): does not inhibit
EphB2 receptor
  interaction with EphB2 receptor (pull down): did not interact

## ephrinA4: ephrinA4-Fc used to stimulate brain slices for 20 minutes (RRQRYTPFPLGFEK)
EphA4 [3]
  EphA4 phosphorylation after stimulation: significant increase
